# Assays:
# [1] = molecular target: T1, FXR ligand binding domain (GST-FXR LBD fusion protein) (Homo sapiens, UniProt Q96RI1); test: Radioligand binding assay (SPA, radioligand displacement); conditions: 40 nM GST-FXR LBD on glutathione yttrium silicate SPA beads; radioligand e.g. 20 nM 2,N-dicyclohexyl-2-[2-(2,4 dimethoxy-phenyl)-benzoimidazol-1-yl]-acetamide
# T1 construct: made in house; host or cells: E. coli BL21 (pLysS)
# T1 sequence (Q96RI1 193-472 isoform Q96RI1-2 limits assumed): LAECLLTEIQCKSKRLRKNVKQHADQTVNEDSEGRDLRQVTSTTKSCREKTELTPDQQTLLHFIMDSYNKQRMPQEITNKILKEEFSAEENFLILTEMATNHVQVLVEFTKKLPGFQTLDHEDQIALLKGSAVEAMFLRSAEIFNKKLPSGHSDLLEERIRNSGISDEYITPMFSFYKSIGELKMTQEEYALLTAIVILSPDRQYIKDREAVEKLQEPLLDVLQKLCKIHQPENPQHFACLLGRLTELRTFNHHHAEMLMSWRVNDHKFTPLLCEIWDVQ
# Protocol: The following tests were carried out in order to determine the activity of the compounds of formula (I). Background information on the binding assay can be found in: Nichols J S et al. “Development of a scintillation proximity assay for peroxisome proliferator-activated receptor gamma ligand binding domain”, (1998) Anal. Biochem. 257: 112-119.
# (§1) Bacterial and mammalian expression vectors were constructed to produce glutathione-s-transferase (GST) and Gal4 DNA binding domain (GAL) proteins fused to the ligand binding domain (LBD) of human FXR (aa 193-473). To accomplish this, the portions of the sequences encoding the FXR LBD were amplified by polymerase chain reaction (PCR) from a full-length clone by PCR and then subcloned into the plasmid vectors. The final clone was verified by DNA sequence analysis.
# The induction, expression, and subsequent purification of GST-LBD fusion protein was performed in E. coli strain BL21 (pLysS) cells by standard methods (Current Protocols in Molecular Biology, Wiley Press, ed. Ausubel et al.).
# Radioligand Binding Assay
# Binding of test substances to the FXR ligand binding domain was assessed in a radioligand displacement assay. The assay was performed in a buffer consisting of 50 mM Hepes, pH 7.4, 10 mM NaCl, 5 mM MgCl2, 0.01% CHAPS. For each reaction well in a 96-well plate, 40 nM of GST-FXR LBD fusion protein was bound to 10 μg glutathione ytrium silicate SPA beads (PharmaciaAmersham) in a final volume of 50 μl by shaking. A radioligand (e.g. 20 nM of 2,N-dicyclohexyl-2-[2-(2,4 dimethoxy-phenyl)-benzoimidazol-1-yl]-acetamide) and test compounds were added, and scintillation proximity counting was performed. All binding assays were performed in 96-well plates and the amount of bound ligand was measured on a Packard TopCount using OptiPlates (Packard). Dose response curves were performed within a range of test compound concentrations from 6×10^−9 M to 2.5×10^−5 M and IC50s were calculated.
# [2] = molecular target: T2, ligand binding domain (LBD) of human FXR (aa 193-473) (Homo sapiens, UniProt Q96RI1); test: Luciferase transcriptional reporter gene assay (transactivation); format: cell-based; conditions: BHK21 cells transfected with pFA-FXR-LBD plus reporter plasmid; 24 hours incubation; luciferase luminescence
# T2 sequence (Q96RI1 1-486): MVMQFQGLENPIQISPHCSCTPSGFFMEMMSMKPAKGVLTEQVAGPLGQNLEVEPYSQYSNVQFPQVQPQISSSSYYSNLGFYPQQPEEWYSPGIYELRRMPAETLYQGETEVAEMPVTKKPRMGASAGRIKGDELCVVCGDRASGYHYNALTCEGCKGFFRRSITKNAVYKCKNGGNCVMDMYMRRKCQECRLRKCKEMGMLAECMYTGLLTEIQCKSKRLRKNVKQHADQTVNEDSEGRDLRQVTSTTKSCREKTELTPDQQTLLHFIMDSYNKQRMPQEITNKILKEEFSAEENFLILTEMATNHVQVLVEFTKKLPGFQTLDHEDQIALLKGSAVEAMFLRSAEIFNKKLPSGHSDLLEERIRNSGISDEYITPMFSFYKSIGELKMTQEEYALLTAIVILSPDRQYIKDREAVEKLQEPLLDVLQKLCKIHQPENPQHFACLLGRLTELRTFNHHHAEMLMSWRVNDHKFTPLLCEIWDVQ
# Excerpt: as §1
# Luciferase Transcriptional Reporter Gene Assays
# Baby hamster kidney cells (BHK21 ATCC CCL 10) were grown in DMEM medium containing 10% FBS at 37° C. in a 95% […]/5% CO2 atmosphere. Cells were seeded in 6-well plates at a density of 10^5 cells/well and then transfected with the pFA-FXR-LBD or expression plasmid plus a reporter plasmid. […] Six hours following transfection, the cells were harvested by trypsinization and seeded in 96-well plates at a density of […]. After 24 hours to allow attachment of cells, the medium was removed and replaced with 100 μl of phenol red-free medium containing the test substances or control ligands (final DMSO concentration: 0.4%). Following incubation of the cells for 24 hours with substances, 50 μl of the supernatant was discarded and then 50 μl of Luciferase Constant-Light Reagent (Roche Molecular Biochemicals) was added to lyse the cells and initiate the luciferase reaction. Luminescence, as a measure of luciferase activity, was detected in a Packard TopCount. Transcriptional activation in the presence of a test substance was expressed as fold-change in luminescence compared to that of cells incubated in the absence of the substance. EC50 values were calculated using the XLfit program (ID Business Solutions Ltd. UK).
IC50 [1],EC50 [2],Structure (SMILES)
118 nM,254 nM,"Cc1cc(Cl)ccc1O[C@H](C)c1nc2ccc(F)cc2n1[C@H](C(=O)NC1CCCCC1)C1CCCCC1 [Example 31, (S)-2-{2-[(R)-1-(4-Chloro-2-methyl-phenoxy)-ethyl]-6-fluoro-benzoimidazol-1-yl}-2,N-dicyclohexyl-acetamide]"
105 nM,982 nM,"O=C(NC1CCCCC1)C(C1CCCCC1)n1c(COc2ccccn2)nc2cc(F)ccc21 (stereo not drawn) [Example 56, 2,N-Dicyclohexyl-2-[5-fluoro-2-(pyridin-2-yloxymethyl)-benzoimidazol-1-yl]-acetamide]"
38 nM,95 nM,"Cc1cccc(OCc2nc3cc(F)ccc3n2C(C(=O)NC2CCCCC2)C2CCCCC2)c1C (stereo not drawn) [Example 49, 2,N-Dicyclohexyl-2-[2-(2,3-dimethyl-phenoxymethyl)-5-fluoro-benzoimidazol-1-yl]-acetamide]"
